These results are taken from patent US5061794A, “Cephalosporin derivatives, and antibacterial agents” (priority 1986, dated 1991).

One test concerns Ps. aeruginosa AK 109. In words: in vitro antibacterial activity, agar plate dilution method (MIC). The format is cell-based, Pseudomonas aeruginosa. As to conditions: Ps. aeruginosa AK 109, 10^6 CFU/ml; for MIC: Pseudomonas aeruginosa, AK109, 16 h, read-out: Minimum Inhibitory Concentration (MIC). The protocol: (§1) The in vitro antibacterial activities of the compounds of the present invention against various microorganisms, were measured by the following agar plate dilution method. One platinum loopfull of each test microorganism incubated overnight in Mueller Hinton broth, was inoculated to Mueller Hinton agar (inoculum size: 10^6 CFU/ml). Such culture media containing various antibiotics in various concentrations were prepared. After incubation at 37° C. for 16 hours, the minimum inhibitory concentrations (MIC: μg/ml) were measured.

A further test has as its system Ps. aeruginosa AKR17. Described as above. The format is cell-based, Pseudomonas aeruginosa. The following applies: 10^6 CFU/ml; for MIC: Pseudomonas aeruginosa. The method, then: as §1
The subject of the next test is Ps. aeruginosa IF03445. The description is as above. The format is cell-based, Pseudomonas aeruginosa. As to conditions: 10^6 CFU/ml; for Minimum Inhibitory Concentration (MIC): Ps. aeruginosa IF03445. The method, then: as §1
Another test deals with S. aureus 209P NIHJ-JC1. The test is described as above. As to conditions: Staphylococcus aureus, 16 h. The format is cell-based. The method, then:
as §1

The next test concerns E. cloacae Nek 39. Described as above. The test is classed as cell-based. As to conditions: 10^6 CFU/ml; for Minimum Inhibitory Concentration (MIC): *E. cloacae Nek 39, lactamase-producing strain. The protocol: as §1
The next test deals with E. coli NIHJ JC2. The test is described as above. The test is classed as cell-based. As to conditions: for MIC: Escherichia coli, NIHJJC2, 16 h, read-out: Minimum Inhibitory Concentration (MIC), E. coli NIHJ JC2, 10^6 CFU/ml, 37° C. The method, then:
as §1

The next test concerns S. marcescens IAM 1184. Described as above. The format is cell-based. The following applies: S. marcescens IAM 1184, 10^6 CFU/ml. The protocol: as §1
In a further test the test system is K. pneumoniae No. 42. The description is as above. The test is classed as cell-based. The following applies: 10^6 CFU/ml; for Minimum Inhibitory Concentration (MIC): *K. pneumoniae No. 42, lactamase-producing strain. The method, then: as §1
In another test the test system is P. vulgaris No. 33. The description is as above. As to conditions: *P. vulgaris No. 33, lactamase-producing strain; 10^6 CFU/ml. The test is classed as cell-based. The method, then:
as §1

Another test deals with E. coli GN5482. The test is described as above. The format is cell-based. As to conditions: for MIC: Escherichia coli, GN5482, 16 h, read-out: Minimum Inhibitory Concentration (MIC). The method, then: as §1
A further test concerns K. pneumoniae PCI-602. The description is as above. The test is classed as cell-based. As to conditions: 10^6 CFU/ml; for MIC: Klebsiella pneumoniae, PCI602, 16 h, read-out: Minimum Inhibitory Concentration (MIC), K. pneumoniae PCI-602. The protocol: as §1
The test system of another test is E. cloacae 963. The test is described as above. The test is classed as cell-based. The following applies: 10^6 CFU/ml. The method, then: as §1
The test system of a further test is K. oxytoca GN10650. Described as above. The format is cell-based. The following applies: 10^6 CFU/ml; for Minimum Inhibitory Concentration (MIC): *K. oxytoca GN10650, lactamase-producing strain. The method, then: as §1
A further test relates to S. marcescens No. 16-2. The description is as above. The test is classed as cell-based. As to conditions: for MIC: Serratia marcescens, NO.162, 16 h. The protocol: as §1
The next test concerns P. vulgaris HX-19. Described as above. The test is classed as cell-based. As to conditions: for Minimum Inhibitory Concentration (MIC): P. vulgaris HX-19, 10^6 CFU/ml. The method, then: as §1
In another test the test system is M. morganii GN5407. Described as above. The format is cell-based. As to conditions: *M. morganii GN5407, lactamase-producing strain; 10^6 CFU/ml. The method, then: as §1
Another test has as its system E. coli CSH2 (RK1). In words: microbe, parasite or virus in culture. The test is classed as cell-based. As to conditions: *E. coli CSH2 (RK1), lactamase-producing strain; 10^6 CFU/ml. The method, then: as §1
Another test relates to E. coli CSH(RE45). In words: microbe, parasite or virus in culture. As to conditions: *E. coli CSH(RE45), lactamase-producing strain; 10^6 CFU/ml. The format is cell-based. The method, then: as §1
In the next test the test system is Ps. cepacia 23. In words: in vitro antibacterial activity, agar plate dilution method (MIC). The test is classed as cell-based, Pseudomonas cepacia. The following applies: Ps. cepacia 23, 10^6 CFU/ml; for MIC: Burkholderia cepacia, 16 h, read-out: Minimum Inhibitory Concentration (MIC). The protocol:
as §1

The next test relates to A. calcoaceticus No. 4. The test is described as above. As to conditions: A. calcoaceticus No. 4, 10^6 CFU/ml; for MIC: Acinetobacter calcoaceticus, NO.4, 16 h, read-out: Minimum Inhibitory Concentration (MIC). The test is classed as cell-based, Acinetobacter calcoaceticus. The protocol: as §1
Setting [1] is: read-out: Minimum Inhibitory Concentration (MIC).
[2] abbreviates: Enterobacter cloacae, 963, 16 h, read-out: Minimum Inhibitory Concentration (MIC), E. cloacae 963.

Where two headings read alike, the source gives them in different places.

Turning to `Nc1nc(/C(=N/OC(C(=O)O)c2ccccc2)C(=O)N[C@@H]2C(=O)N3C(C(=O)O)=C(CSc4nnc(-c5ccc(O)c(O)c5)o4)CS[C@H]23)cs1` (single isomer, unassigned) [Example 24 DA, disodium 78-[2-(2-aminothiazol-4-yl)-2-(α-carboxylatebenzyloxyimino)acetamido]-3-[5-(3,4-dihydroxyphenyl)-1,3,4-oxadiazol-2-yl]-thiomethyl-3-cephem-4-carboxylate], the MIC with Ps. aeruginosa AK 109 was found to be 0.1 µg/mL; in the test on Ps. aeruginosa AKR17 (AKR17, 16 h, read-out: Minimum Inhibitory Concentration (MIC), Ps. aeruginosa AKR17) it was 0.78 µg/mL; with Ps. aeruginosa IF03445 (Pseudomonas aeruginosa, IF03445, 16 h, read-out: Minimum Inhibitory Concentration (MIC), Ps. aeruginosa IF03445), 0.78 µg/mL; in the test on S. aureus 209P NIHJ-JC1 (setting [1]), 12.5 µg/mL; with E. cloacae Nek 39 (Enterobacter cloacae, NEK39, 16 h, read-out: Minimum Inhibitory Concentration (MIC), *E. cloacae Nek 39, lactamase-producing strain) it was 0.025 µg/mL; in the test with E. coli NIHJ JC2 it was 0.2 µg/mL. Further, the MIC was 0.025 µg/mL in the test with S. marcescens IAM 1184 (Serratia marcescens, IAM1184, 16 h, read-out: Minimum Inhibitory Concentration (MIC)); 0.0125 µg/mL in the test with K. pneumoniae No. 42 (Klebsiella pneumoniae, NO.42, 16 h, read-out: Minimum Inhibitory Concentration (MIC), *K. pneumoniae No. 42, lactamase-producing strain); 0.39 µg/mL in the test on E. coli GN5482; less than 0.006 µg/mL with K. pneumoniae PCI-602; 0.05 µg/mL in the test on E. cloacae 963 (setting [2]); 0.0125 µg/mL in the test on K. oxytoca GN10650 (Klebsiella oxytoca, GN10650, 16 h, read-out: Minimum Inhibitory Concentration (MIC), *K. oxytoca GN10650, lactamase-producing strain). The MIC in the test on S. marcescens No. 16-2 (read-out: Minimum Inhibitory Concentration (MIC), *S. marcescens No. 16-2, lactamase-producing strain, 10^6 CFU/ml) is 0.78 µg/mL; in the test with Ps. cepacia 23, less than 0.006 µg/mL; in the test on A. calcoaceticus No. 4, 0.05 µg/mL. Also, the “Minimum Inhibitory Concentration (MIC)” value is 0.0125 µg/mL in the test with P. vulgaris No. 33; less than 0.006 µg/mL in the test on P. vulgaris HX-19; 0.025 µg/mL in the test with M. morganii GN5407; less than 0.006 µg/mL in the test on E. coli CSH2 (RK1); less than 0.006 µg/mL in the test on E. coli CSH(RE45).
For `Nc1nc(/C(=N/OC(C(=O)O)c2ccccc2)C(=O)N[C@@H]2C(=O)N3C(C(=O)O)=C(CSc4nnc(-c5ccc(O)c(O)c5)o4)CS[C@H]23)cs1` (single isomer, unassigned) [Example 24 DB, disodium 78-[2-(2-aminothiazol-4-yl)-2-(α-carboxylatebenzyloxyimino)acetamido]-3-[5-(3,4-dihydroxyphenyl)-1,3,4-oxadiazol-2-yl]-thiomethyl-3-cephem-4-carboxylate], the “Minimum Inhibitory Concentration (MIC)” value in the test with Ps. aeruginosa AK 109 worked out at 0.2 µg/mL; in the test with Ps. aeruginosa AKR17 (Ps. aeruginosa AKR17), 0.78 µg/mL; with Ps. aeruginosa IF03445, 1.56 µg/mL; with E. cloacae Nek 39, 0.05 µg/mL; with E. coli NIHJ JC2 (E. coli NIHJ JC2, 10^6 CFU/ml, 37° C., 16 hours), 0.39 µg/mL; in the test with S. marcescens IAM 1184, 0.05 µg/mL. Also, the “Minimum Inhibitory Concentration (MIC)” value in the test on K. pneumoniae No. 42 is 0.025 µg/mL; in the test with P. vulgaris No. 33, 0.1 µg/mL; with E. coli GN5482 (*E. coli GN5482, lactamase-producing strain, 10^6 CFU/ml), 0.39 µg/mL; in the test with K. pneumoniae PCI-602 (K. pneumoniae PCI-602) it was less than 0.006 µg/mL; in the test with K. oxytoca GN10650 it was 0.025 µg/mL; in the test with S. marcescens No. 16-2 (*S. marcescens No. 16-2, lactamase-producing strain, 10^6 CFU/ml), 0.78 µg/mL. Moreover, the “Minimum Inhibitory Concentration (MIC)” value is 0.05 µg/mL in the test on P. vulgaris HX-19; 0.2 µg/mL in the test on M. morganii GN5407; 0.0125 µg/mL in the test with E. coli CSH2 (RK1); 0.0125 µg/mL with E. coli CSH(RE45); less than 0.006 µg/mL with Ps. cepacia 23; 0.05 µg/mL in the test with A. calcoaceticus No. 4. Besides, the MIC in the test on S. aureus 209P NIHJ-JC1 (S. aureus 209P NIHJ-JC1, 10^6 CFU/ml, 37° C., 16 hours, read-out: Minimum Inhibitory Concentration (MIC)) came out at 25 µg/mL; in the test on E. cloacae 963 (Enterobacter cloacae, 16 h, E. cloacae 963, read-out: Minimum Inhibitory Concentration (MIC)), 0.1 µg/mL.
For `Nc1nc(C(=NOC(C(=O)O)c2ccc(O)c(O)c2)C(=O)NC2C(=O)N3C(C(=O)O)=C(CSc4nnc(-c5ccc(O)c(O)c5)s4)CSC23)cs1` (single isomer, unassigned) [Example 38 DA, disodium 7β-{2-(2-aminothiazol-4-yl)-2-(α-carboxylate-3,4-dihydroxybenzyloxyimino)acetamido]-3-[5-(3,4-dihydroxyphenyl)-1,3,4-thiadiazol-2-yl]thiomethyl-3-cephem-4-carboxylate], the MIC with Ps. aeruginosa AK 109 is 0.2 µg/mL; in the test on Ps. aeruginosa AKR17 (16 h, Ps. aeruginosa AKR17, read-out: Minimum Inhibitory Concentration (MIC)) it was 0.1 µg/mL; with S. aureus 209P NIHJ-JC1 (read-out: Minimum Inhibitory Concentration (MIC), S. aureus 209P NIHJ-JC1, 10^6 CFU/ml, 37° C., 16 hours), 0.78 µg/mL; with E. coli NIHJ JC2, 0.2 µg/mL; in the test with E. coli GN5482, 0.2 µg/mL; in the test on K. pneumoniae PCI-602, less than 0.006 µg/mL. Further, the MIC with E. cloacae 963 (setting [2]) is 0.05 µg/mL; with S. marcescens No. 16-2 (setting [1]) it was 0.2 µg/mL; in the test with P. vulgaris HX-19 (Proteus vulgaris, HX19, 16 h, read-out: Minimum Inhibitory Concentration (MIC)), 0.0125 µg/mL; in the test on Ps. cepacia 23, less than 0.006 µg/mL; in the test with A. calcoaceticus No. 4, 0.025 µg/mL. The “Minimum Inhibitory Concentration (MIC)” value turned out to be 0.39 µg/mL in the test with Ps. aeruginosa IF03445; 0.1 µg/mL in the test on E. cloacae Nek 39; 0.025 µg/mL with S. marcescens IAM 1184; 0.0125 µg/mL in the test on K. pneumoniae No. 42; 0.025 µg/mL in the test on P. vulgaris No. 33; 0.025 µg/mL in the test with K. oxytoca GN10650. Moreover, the “Minimum Inhibitory Concentration (MIC)” value in the test with M. morganii GN5407 was 0.05 µg/mL; in the test on E. coli CSH2 (RK1), less than 0.006 µg/mL; in the test on E. coli CSH(RE45), less than 0.006 µg/mL.
